Laboratory results from US20250129070A1, “BIFUNCTIONAL ANDROGEN RECEPTOR COMPOUNDS” (priority 2023, published 2025).

Columns and labels:
VCaP cells = assay: VCaP growth inhibition assay; format: cell-based; conditions: 30 pM R1881, 9 days, CTG
Outline: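 VCaP cells in phenol red-free DMEM/5% CSS, pre-incubated 72 h, then stimulated with R1881 (final 30 pM) and treated with 1:5 serial dilutions (final 100 nM to 10 fM) for 9 days at 37 °C. Viability by CellTiter-Glo luminescence; IC50 from 4-parameter logistic fit of RLU vs concentration.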

AR / CBP ternary complex = assay: Ternary complex formation assay (sandwich ELISA, AR capture / CBP detection) in VCaP cell lysates; format: cell-based; conditions: 1.5 hours treatment, sandwich ELISA (AR capture, CBP or p300 detection)
Outline: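 VCaP cells (50K/well, 5% charcoal-stripped FBS, ≥3 days) treated with bifunctional compound for 1.5 h, then lysed 30 min at 4 °C. AR captured on anti-AR (AR 441) plates; bound CBP or p300 detected by rabbit mAb plus HRP secondary. QuantaRed chemifluorescence read at ex 570/em 585, immediately and at 5 and 15 min.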

IC50 (VCaP cells) [nM]	EC50 (AR / CBP ternary complex) [nM]	SMILES
0.1 to 1	1 to 10	CC(=O)N1CCc2c(c(N3CCCc4cc(-c5cnn(C)c5)c(C(F)F)cc43)nn2C2CCN(CC3CCN(c4ncc(C(=O)NC5C(C)(C)C(Oc6ccc(C#N)c(Cl)c6)C5(C)C)cn4)CC3)C2)C1 (stereo not drawn) [Compound 21, 2-[4-[[3-[5-acetyl-3-[7-(difluoromethyl)-6-(1-methylpyrazol-4-yl)-3,4-dihydro-2H-quinolin-1-yl]-6,7-dihydro-4H-pyrazolo[4,3-c]pyridin-1-yl]pyrrolidin-1-yl]methyl]-1-piperidyl]-N-[3-(3-chloro-4-cyano-phenoxy)-2,2,4,4-tetramethyl-cyclobutyl]pyrimidine-5-carboxamide]
> 100	10 to 100	CN1C(=O)CCc2cc(-c3cccc4cc(-c5ccc(CCC6CCN(c7ncc(C(=O)NC8C(C)(C)C(Oc9ccc(C#N)c(Cl)c9)C8(C)C)cn7)CC6)nc5)ncc34)ccc21 (stereo not drawn) [Compound 238, N-[3-(3-chloro-4-cyano-phenoxy)-2,2,4,4-tetramethyl-cyclobutyl]-2-[4-[2-[5-[8-(1-methyl-2-oxo-3,4-dihydroquinolin-6-yl)-3-isoquinolyl]-2-pyridyl]ethyl]-1-piperidyl]pyrimidine-5-carboxamide]
0.1 to 1	< 1	COc1cc(OC2C(C)(C)C(NC(=O)c3ccc(N4CC(OC5CCC(n6nc(N7CCCc8cc(-c9cnn(C)c9)c(C(F)F)cc87)c7c6CCN(C(C)=O)C7)CC5)C4)cc3)C2(C)C)ccc1C#N (stereo not drawn) [Compound 343, 4-[3-[4-[5-acetyl-3-[7-(difluoromethyl)-6-(1-methylpyrazol-4-yl)-3,4-dihydro-2H-quinolin-1-yl]-6,7-dihydro-4H-pyrazolo[4,3-c]pyridin-1-yl]cyclohexoxy]azetidin-1-yl]-N-[3-(4-cyano-3-methoxy-phenoxy)-2,2,4,4-tetramethyl-cyclobutyl]benzamide]
0.1 to 1	< 1	CC(=O)N1CCc2c(c(N3CCCc4cc(-c5cnn(C)c5)c(C(F)F)cc43)nn2C2CCN([C@H]3CCN(c4ncc(C(=O)NC5C(C)(C)C(Oc6ccc(C#N)c(Cl)c6)C5(C)C)cn4)C3)CC2)C1 (stereo partly drawn) [Compound 334, 2-[(3S)-3-[4-[5-acetyl-3-[7-(difluoromethyl)-6-(1-methylpyrazol-4-yl)-3,4-dihydro-2H-quinolin-1-yl]-6,7-dihydro-4H-pyrazolo[4,3-c]pyridin-1-yl]-1-piperidyl]pyrrolidin-1-yl]-N-[3-(3-chloro-4-cyano-phenoxy)-2,2,4,4-tetramethyl-cyclobutyl]pyrimidine-5-carboxamide]
≤ 0.1	< 1	COc1cc(OC2C(C)(C)C(NC(=O)c3ccc(N4CCN(CCc5ccc(-c6cc7cccc(-c8nn(C9CCOCC9)c9c8CN(C(C)=O)CC9)c7cn6)cn5)CC4)cc3)C2(C)C)ccc1C#N (stereo not drawn) [Compound 250, 4-[4-[2-[5-[8-(5-acetyl-1-tetrahydropyran-4-yl-6,7-dihydro-4H-pyrazolo[4,3-c]pyridin-3-yl)-3-isoquinolyl]-2-pyridyl]ethyl]piperazin-1-yl]-N-[3-(4-cyano-3-methoxy-phenoxy)-2,2,4,4-tetramethyl-cyclobutyl]benzamide]
≤ 0.1	< 1	CC(=O)N1CCc2c(c(N3CCCc4cc(-c5cnn(C)c5)c(C(F)F)cc43)nn2C2CCN(CC3C(C)CN(c4ncc(C(=O)NC5C(C)(C)C(Oc6ccc(C#N)c(C)c6)C5(C)C)cn4)CC3C)CC2)C1 (stereo not drawn) [Compound 462, 2-[4-[[4-[5-acetyl-3-[7-(difluoromethyl)-6-(1-methylpyrazol-4-yl)-3,4-dihydro-2H-quinolin-1-yl]-6,7-dihydro-4H-pyrazolo[4,3-c]pyridin-1-yl]-1-piperidyl]methyl]-3,5-dimethyl-1-piperidyl]-N-[3-(4-cyano-3-methyl-phenoxy)-2,2,4,4-tetramethyl-cyclobutyl]pyrimidine-5-carboxamide]
0.1 to 1	< 1	CC(=O)N1CCc2c(c(N3CCCc4cc(-c5cnn(C)c5)c(C(F)(F)F)cc43)nn2C2CCN(CC3CCN(c4ncc(C(=O)NC5C(C)(C)C(Oc6ccc(C#N)c(Cl)c6)C5(C)C)cn4)CC3)CC2)C1 (stereo not drawn) [Compound 27, 2-[4-[[4-[5-acetyl-3-[6-(1-methylpyrazol-4-yl)-7-(trifluoromethyl)-3,4-dihydro-2H-quinolin-1-yl]-6,7-dihydro-4H-pyrazolo[4,3-c]pyridin-1-yl]-1-piperidyl]methyl]-1-piperidyl]-N-[3-(3-chloro-4-cyano-phenoxy)-2,2,4,4-tetramethyl-cyclobutyl]pyrimidine-5-carboxamide]
0.1 to 1	< 1	C[C@@H]1CC(=O)Nc2cccc(-c3ccc4c(c3)c(-c3cnn(C)c3)nn4CCN3CCN(c4ncc(C(=O)NC5C(C)(C)C(Oc6ccc(C#N)c(Cl)c6)C5(C)C)cn4)CC3)c2N1 (stereo partly drawn) [Compound 56, N-[3-(3-chloro-4-cyano-phenoxy)-2,2,4,4-tetramethyl-cyclobutyl]-2-[4-[2-[5-[(4R)-4-methyl-2-oxo-1,3,4,5-tetrahydro-1,5-benzodiazepin-6-yl]-3-(1-methylpyrazol-4-yl)indazol-1-yl]ethyl]piperazin-1-yl]pyrimidine-5-carboxamide]
≤ 0.1	< 1	COc1cc(OC2C(C)(C)C(NC(=O)c3ccc(N4CCC(CN5CCC(n6nc(-c7cccc8cc(-c9cnn(C)c9)ncc78)c7c6CCN(C(C)=O)C7)CC5)CC4)cc3)C2(C)C)ccc1C#N (stereo not drawn) [Compound 253, 4-[4-[[4-[5-acetyl-3-[3-(1-methylpyrazol-4-yl)-8-isoquinolyl]-6,7-dihydro-4H-pyrazolo[4,3-c]pyridin-1-yl]-1-piperidyl]methyl]-1-piperidyl]-N-[3-(4-cyano-3-methoxy-phenoxy)-2,2,4,4-tetramethyl-cyclobutyl]benzamide]
> 100	> 100	CC(=O)N1CCc2c(c(N3CCCc4cc(-c5cnn(C)c5)c(C(F)F)cc43)nn2CCN(C)c2ncc(C(=O)NC3C(C)(C)C(Oc4ccc(C#N)c(Cl)c4)C3(C)C)cn2)C1 (stereo not drawn) [Compound 45, 2-[2-[5-acetyl-3-[7-(difluoromethyl)-6-(1-methylpyrazol-4-yl)-3,4-dihydro-2H-quinolin-1-yl]-6,7-dihydro-4H-pyrazolo[4,3-c]pyridin-1-yl]ethyl-methyl-amino]-N-[3-(3-chloro-4-cyano-phenoxy)-2,2,4,4-tetramethyl-cyclobutyl]pyrimidine-5-carboxamide]
0.1 to 1	< 1	COc1cc(OC2C(C)(C)C(NC(=O)c3ccc(N4CCC(CCc5ccc(-c6cc7c(cc6C(F)F)N(c6nn(C8CCOCC8)c8c6CN(C(C)=O)CC8)CCC7)cn5)CC4)cc3)C2(C)C)ccc1C#N (stereo not drawn) [Compound 247, 4-[4-[2-[5-[1-(5-acetyl-1-tetrahydropyran-4-yl-6,7-dihydro-4H-pyrazolo[4,3-c]pyridin-3-yl)-7-(difluoromethyl)-3,4-dihydro-2H-quinolin-6-yl]-2-pyridyl]ethyl]-1-piperidyl]-N-[3-(4-cyano-3-methoxy-phenoxy)-2,2,4,4-tetramethyl-cyclobutyl]benzamide]
> 100	> 100	C[C@@H]1CC(=O)Nc2cccc(-c3ccc4c(c3)c(-c3cnn(C)c3)nn4C3CCN(c4ncc(C(=O)NC5C(C)(C)C(Oc6ccc(C#N)c(Cl)c6)C5(C)C)cn4)CC3)c2N1 (stereo partly drawn) [Compound 60, N-[3-(3-chloro-4-cyano-phenoxy)-2,2,4,4-tetramethyl-cyclobutyl]-2-[4-[5-[(4R)-4-methyl-2-oxo-1,3,4,5-tetrahydro-1,5-benzodiazepin-6-yl]-3-(1-methylpyrazol-4-yl)indazol-1-yl]-1-piperidyl]pyrimidine-5-carboxamide]
≤ 0.1	< 1	CC(=O)N1CCc2c(c(N3CCCc4cc(-c5cnn(C)c5)c(C(F)F)cc43)nn2C2CCN(CC3C(C)CN(c4ncc(C(=O)NC5C(C)(C)C(Oc6ccc(C#N)c(Cl)c6C)C5(C)C)cn4)CC3C)CC2)C1 (stereo not drawn) [Compound 460, 2-[4-[[4-[5-acetyl-3-[7-(difluoromethyl)-6-(1-methylpyrazol-4-yl)-3,4-dihydro-2H-quinolin-1-yl]-6,7-dihydro-4H-pyrazolo[4,3-c]pyridin-1-yl]-1-piperidyl]methyl]-3,5-dimethyl-1-piperidyl]-N-[3-(3-chloro-4-cyano-2-methyl-phenoxy)-2,2,4,4-tetramethyl-cyclobutyl]pyrimidine-5-carboxamide]
≤ 0.1	< 1	COc1cc(OC2C(C)(C)C(NC(=O)c3ccc(OC4CC5(CCC(N6CCC(n7nc(N8CCCc9cc(-c%10cnn(C)c%10)c(C(F)F)cc98)c8c7CCN(C(C)=O)C8)CC6)CC5)C4)cc3)C2(C)C)ccc1C#N (stereo not drawn) [Compound 384, 4-[7-[4-[5-acetyl-3-[7-(difluoromethyl)-6-(1-methylpyrazol-4-yl)-3,4-dihydro-2H-quinolin-1-yl]-6,7-dihydro-4H-pyrazolo[4,3-c]pyridin-1-yl]-1-piperidyl]spiro[3.5]nonan-2-yl] oxy-N-[3-(4-cyano-3-methoxy-phenoxy)-2,2,4,4-tetramethyl-cyclobutyl]benzamide]

SMILES	IC50 (VCaP cells) [nM]	EC50 (AR / CBP ternary complex) [nM]
CC(=O)N1CCc2c(c(N3CCCc4ccccc43)nn2C2CCN(C(=O)C3CCN(c4ncc(C(=O)NC5C(C)(C)C(Oc6ccc(C#N)c(Cl)c6)C5(C)C)cn4)CC3)CC2)C1 (stereo not drawn) [Compound 129, 2-[4-[4-[5-acetyl-3-(3,4-dihydro-2H-quinolin-1-yl)-6,7-dihydro-4H-pyrazolo[4,3-c]pyridin-1-yl]piperidine-1-carbonyl]-1-piperidyl]-N-[3-(3-chloro-4-cyano-phenoxy)-2,2,4,4-tetramethyl-cyclobutyl]pyrimidine-5-carboxamide]	≤ 0.1	< 1
